From ChEMBL document CHEMBL5523749, “Amphiphilic Heparinoids as Potent Antiviral Agents against SARS-CoV-2” (J Med Chem, 2024)
≈ marks a conversion by molar mass, not a printed value.

Legend:
SARS-CoV-2 [1] = format: functional, organism-based, Severe acute respiratory syndrome coronavirus 2, G614, Vero E6
SARS-CoV-2 [2] = conditions: vero e6
Description: (§1) Antiviral activity against SARS-CoV-2 D614 isolates infected in African green monkey Vero E6 cells assessed as reduction in plaque formation treated for 1 hr prior to infection with cells incubated for 30 mins by plaque reduction neutralization test

Heparanase = target: T1, Heparanase (Homo sapiens, UniProt Q9Y251); test: Inhibition of recombinant human heparanase expressed in Insect cells assessed as fondaparinux cleavage by measuring disaccharide product incubated for 18 to 21 hrs; conditions: insect cell
T1 sequence (Q9Y251 whole entry): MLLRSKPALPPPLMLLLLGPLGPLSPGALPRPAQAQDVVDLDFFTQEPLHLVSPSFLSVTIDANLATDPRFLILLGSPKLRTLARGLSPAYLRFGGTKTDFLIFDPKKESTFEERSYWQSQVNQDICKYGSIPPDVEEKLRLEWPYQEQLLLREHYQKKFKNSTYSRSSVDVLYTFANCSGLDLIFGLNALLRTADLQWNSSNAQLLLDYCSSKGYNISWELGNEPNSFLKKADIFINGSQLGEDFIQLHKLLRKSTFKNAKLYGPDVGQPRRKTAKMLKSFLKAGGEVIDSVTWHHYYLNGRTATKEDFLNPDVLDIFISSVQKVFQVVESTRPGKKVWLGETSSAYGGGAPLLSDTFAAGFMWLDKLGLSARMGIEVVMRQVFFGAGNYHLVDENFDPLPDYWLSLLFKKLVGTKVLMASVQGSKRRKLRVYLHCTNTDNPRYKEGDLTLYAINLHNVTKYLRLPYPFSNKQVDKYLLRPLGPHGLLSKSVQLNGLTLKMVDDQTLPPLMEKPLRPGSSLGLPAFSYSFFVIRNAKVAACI

SARS-CoV-2 [3] = test: microbe, parasite or virus in culture; conditions: Severe acute respiratory syndrome coronavirus 2, D614, Vero C1008
Description: as §1

Spike glycoprotein = Spike glycoprotein (Severe acute respiratory syndrome coronavirus 2, UniProt P0DTC2); test: Binding affinity to RBD domain of SARS-CoV-2 spike protein assessed as dissociation constant by Isothermal Titration Calorimetry
[4] = tested on: Respiratory syncytial virus; test: Antiviral activity against RSV A2 strain infected in HEp-2 cells assessed as reduction in plaque number measured after 3 days incubation; conditions: human respiratory syncytial virus, A2, HEp-2, 72 h
Human alphaherpesvirus 2 = test: Antiviral activity against HSV2 infected in CMK AH1 cells assessed as reduction in plaque number measured after 2 days incubation; conditions: Human alphaherpesvirus 2, CMK AH1, 48 h
[5] = Severe acute respiratory syndrome coronavirus 2, G614, Vero C1008, read-out: IC50

Row | SMILES | IC50 (SARS-CoV-2 [2]) | IC50 (SARS-CoV-2 [3]) | IC50 (SARS-CoV-2 [1]; [5]) | Kd (Spike glycoprotein) | also measured
1 | CCCCCCCCCCCCCCCCCC(=O)NCCCO[C@@H]1O[C@H](COS(=O)(=O)[O-])[C@@H](O[C@H]2O[C@H](COS(=O)(=O)[O-])[C@@H](O[C@H]3O[C@H](COS(=O)(=O)[O-])[C@@H](O[C@H]4O[C@H](COS(=O)(=O)[O-])[C@@H](O[C@H]5O[C@H](COS(=O)(=O)[O-])[C@@H](O[C@H]6O[C@H](COS(=O)(=O)[O-])C(OS(=O)(=O)[O-])[C@H](OS(=O)(=O)[O-])[C@H]6OS(=O)(=O)[O-])[C@H](OS(=O)(=O)[O-])[C@H]5OS(=O)(=O)[O-])[C@H](OS(=O)(=O)[O-])[C@H]4OS(=O)(=O)[O-])[C@H](OS(=O)(=O)[O-])[C@H]3OS(=O)(=O)[O-])[C@H](OS(=O)(=O)[O-])[C@H]2OS(=O)(=O)[O-])[C@H](OS(=O)(=O)[O-])[C@H]1OS(=O)(=O)[O-].[Na+].[Na+].[Na+].[Na+].[Na+].[Na+].[Na+].[Na+].[Na+].[Na+].[Na+].[Na+].[Na+].[Na+].[Na+].[Na+].[Na+].[Na+].[Na+] (stereo not given in full) | Not Active | – | – | – | IC50 (SARS-CoV-2 [1]; vero e6): Not Active
2 | CC(C)CCC[C@@H](C)[C@H]1CC[C@H]2[C@@H]3CC[C@H]4C[C@@H](O[C@@H]5O[C@@H](C(=O)O)[C@@H](O[C@@H]6O[C@@H](C(=O)O)[C@@H](OS(=O)(=O)O)[C@H](O)[C@H]6OS(=O)(=O)O)[C@H](O)[C@H]5OS(=O)(=O)O)CC[C@]4(C)[C@H]3CC[C@]12C | – | 33.7 µg/mL (≈ 34.3 µM) | – | – | IC50 (Heparanase): Not Active
3 | CC(C)CCC[C@@H](C)[C@H]1CC[C@H]2[C@@H]3CC[C@H]4C[C@@H](O[C@H]5O[C@H](COS(=O)(=O)[O-])[C@@H](O[C@H]6O[C@H](COS(=O)(=O)[O-])[C@@H](O[C@H]7O[C@H](COS(=O)(=O)[O-])[C@@H](O[C@H]8O[C@H](COS(=O)(=O)[O-])[C@@H](O[C@H]9O[C@H](COS(=O)(=O)[O-])[C@@H](O[C@H]%10O[C@H](COS(=O)(=O)[O-])[C@@H](OS(=O)(=O)[O-])[C@H](OS(=O)(=O)[O-])[C@H]%10OS(=O)(=O)[O-])[C@H](OS(=O)(=O)[O-])[C@H]9OS(=O)(=O)[O-])[C@H](OS(=O)(=O)[O-])[C@H]8OS(=O)(=O)[O-])[C@H](OS(=O)(=O)[O-])[C@H]7OS(=O)(=O)[O-])[C@H](OS(=O)(=O)[O-])[C@H]6OS(=O)(=O)[O-])[C@H](OS(=O)(=O)[O-])[C@H]5OS(=O)(=O)[O-])CC[C@]4(C)[C@H]3CC[C@]12C.[Na+].[Na+].[Na+].[Na+].[Na+].[Na+].[Na+].[Na+].[Na+].[Na+].[Na+].[Na+].[Na+].[Na+].[Na+].[Na+].[Na+].[Na+].[Na+] | – | 12.2 µg/mL | 21.7 µg/mL | 1.87 µM | –
4 | CC(C)CCC[C@@H](C)[C@H]1CC[C@H]2[C@@H]3CC[C@H]4C[C@@H](O[C@@H]5O[C@H](COS(=O)(=O)[O-])[C@@H](O[C@H]6O[C@H](COS(=O)(=O)[O-])[C@@H](O[C@H]7O[C@H](COS(=O)(=O)[O-])[C@@H](O[C@H]8O[C@H](COS(=O)(=O)[O-])[C@@H](OS(=O)(=O)[O-])[C@H](OS(=O)(=O)[O-])[C@H]8OS(=O)(=O)[O-])[C@H](OS(=O)(=O)[O-])[C@H]7OS(=O)(=O)[O-])[C@H](OS(=O)(=O)[O-])[C@H]6OS(=O)(=O)[O-])[C@H](OS(=O)(=O)[O-])[C@H]5OS(=O)(=O)[O-])CC[C@]4(C)[C@H]3CC[C@]12C.[Na+].[Na+].[Na+].[Na+].[Na+].[Na+].[Na+].[Na+].[Na+].[Na+].[Na+].[Na+].[Na+] | – | 29.6 µg/mL | – | 9.12 µM | IC50 [4]: ~1 µg/mL; IC50 (Human alphaherpesvirus 2): ~1 µg/mL
5 | O=C(CCCCCCCCCCn1cc(CNc2ccc([N+](=O)[O-])c3nonc23)nn1)NCCCCCCO[C@@H]1O[C@H](COS(=O)(=O)[O-])[C@@H](O[C@H]2O[C@H](COS(=O)(=O)[O-])[C@@H](O[C@H]3O[C@H](COS(=O)(=O)[O-])[C@@H](O[C@H]4O[C@H](COS(=O)(=O)[O-])[C@@H](OS(=O)(=O)[O-])[C@H](OS(=O)(=O)[O-])[C@H]4OS(=O)(=O)[O-])[C@H](OS(=O)(=O)[O-])[C@H]3OS(=O)(=O)[O-])[C@H](OS(=O)(=O)[O-])[C@H]2OS(=O)(=O)[O-])[C@H](OS(=O)(=O)[O-])[C@H]1OS(=O)(=O)[O-].[Na+].[Na+].[Na+].[Na+].[Na+].[Na+].[Na+].[Na+].[Na+].[Na+].[Na+].[Na+].[Na+] | Not Active | – | 16.1 µg/mL | – | –
6 | [N-]=[N+]=NCCCCCCCCCCC(=O)NCCCCCCCCCCCO[C@@H]1O[C@H](COS(=O)(=O)[O-])[C@@H](O[C@H]2O[C@H](COS(=O)(=O)[O-])[C@@H](O[C@H]3O[C@H](COS(=O)(=O)[O-])[C@@H](O[C@H]4O[C@H](COS(=O)(=O)[O-])[C@@H](OS(=O)(=O)[O-])[C@H](OS(=O)(=O)[O-])[C@H]4OS(=O)(=O)[O-])[C@H](OS(=O)(=O)[O-])[C@H]3OS(=O)(=O)[O-])[C@H](OS(=O)(=O)[O-])[C@H]2OS(=O)(=O)[O-])[C@H](OS(=O)(=O)[O-])[C@H]1OS(=O)(=O)[O-].[Na+].[Na+].[Na+].[Na+].[Na+].[Na+].[Na+].[Na+].[Na+].[Na+].[Na+].[Na+].[Na+] | Not Active | – | 84.1 µg/mL | – | –
